These are literature values, as cited in patent US20040116411A1, “Combination HIV therapy including camptothecin” (priority 2000, published 2004).

One data set relates to HIV. The conditions noted are these: by disrupting gp41 conformational changes associated with membrane fusion.
In data set [1] the test system is Moloney murine leukemia virus (MMLV).
The test system of data set [2] is equine infectious anemia virus (EIAA). The note with it: chronically infected cells.
For data set [3], the system named is human CD4+ lymphocytic cell line RPMI 8402. The note with it: at the concentration used.
The next data set concerns HIV-1 LTR. The note with it: human CD4+ lymphocytic cell line RPMI 8402.
Data set [4] relates to viral-associated topoisomerase I. The note with it: HIV infection of human H9 cells, in vitro.
Data set [5] concerns rous sarcoma virus (RSV) promoter.

enfuvirtide: the infection in vitro result with HIV was “inhibit infection in vitro”.
For `CC[C@@]1(O)C(=O)OCc2c1cc1n(c2=O)Cc2cc3ccccc3nc2-1` [camptothecin, 20(S)-camptothecin], the MMLV replication entry in data set [1] is on record as “inhibits”. The EIAA replication entry in data set [2] is given as “inhibits”. Further, the “expression of gro, a cellular gene” value in the data set on gro is on record as “did not inhibit”. Also, in data set [3], the cell survival entry is reported as “not significantly affected”. In the data set with HIV-1 LTR, the “expression of downstream reporter gene under the control of HIV-1 LTR” value is reported as “inhibitory effects”. In data set [4], the “activity of the viral-associated topoisomerase I” value is “significantly reduced”. Also, in data set [5], the “promoter activity of rous sarcoma virus (RSV)” value is “did not inhibit”.
Take `CC[C@@]1(O)C(=O)OCc2c1cc1n(c2=O)Cc2cc3c(CN(C)C)c(O)ccc3nc2-1` [Topotecan]: in the data set on HIV-1 (CPT-K5 cell line, PBMC acutely infected with clinical isolates, OM10.1 cells latently infected, activated by TNF-α), the antiviral effects entry is recorded as “antiviral effects of topotecan were observed”. In addition, the “acute and chronic HIV-1 infections” value in the data set on HIV-1 (in vitro) is recorded as “inhibit”.
